From publication PMC8406298, “Discovery of Fungus-Specific Targets and Inhibitors Using Chemical Phenotyping of Pathogenic Spore Germination” (mBio, 2021)
“And” between values parts separate entries of the source, which are not always exact repeats. Identical values can stand only once. Like-named read-outs stand apart in the source and are kept apart here.

Key:
Cryptococcus spores = experiment: Quantitative germination assay (QGA), automated microscopy of spore germination; assay type: cell-based, Cryptococcus neoformans serotype D (deneoformans); details: for germination inhibition phenotype (chemical phenotype) in QGA: at phenotypic concentration
Description: In this automated microscopy-based assay, germination progression of spores is monitored as a function of changes in cell morphology over time (spores are small and oval; yeast are large and circular). Individual spores in a population (∼1 × 10^4 per sample) are measured to determine size (area) and shape (aspect ratio) from the onset of germination, and the data are collected for each cell over the time of germination (Fig. 1A).
Germination assays were modified from those described by Barkal et al. to introduce automation, increase throughput, and refine assay consistency ([12]). Briefly, 384-well plates (Thermo Scientific 142762) were loaded with 10^5 spores per well, and at 0 h, synthetic medium plus 2% dextrose (SD medium) containing the compounds of interest was added to the sample (final volume of 40 μl). All compounds were tested initially at 80 μM; however, concentrations were changed on a case-by-case basis for subsequent experiments. All assays and controls were performed with a final concentration of 0.8% DMSO (the compound solvent) unless specified otherwise. Spores were germinated at 30°C in a humidified chamber, and the same ∼5 × 10^3 cells were monitored every 2 h for 16 h. Imaging was performed on a Ti2 Nikon microscope, and each condition was visualized in a minimum of two individual wells with three fields of view acquired from each well. All images were analyzed as described previously based on cell shape and size using ImageJ. The population ratios of spores, intermediates, and yeast were determined. Error bars in plots are based on the variation among all fields of view acquired. Level of germination was determined by quantifying the decrease in the proportion of spores in a population, and rates were quantified by determining the change in this proportion over time. For all two-dimensional histograms, the x axis represents area from 0 μm^2 to 25 μm^2, and the y axis represents the aspect ratio from 0.4 to 1.
Cycloheximide (0.078 μM to 80 μM) (Dot Scientific, Inc. DSC81040-1), G418 (1.6 mM) (Fisher Scientific AAJ6267106), and puromycin (20 mM) (Dot Scientific, Inc. DSP33020-0.025) were tested with no DMSO (all were water soluble), whereas anisomycin (62.5 μM) (Sigma-Aldrich A9789-5MG) was tested in 2.5% DMSO.
Furcarbanil (80 μM) (Sigma-Aldrich T313122), rotenone (10 μM) (Fisher Scientific 501687383), and antimycin A (2.5 μM) (Santa Cruz Biotechnology, Inc. sc-202467A) were all tested in 0.8% DMSO, and TTFA (200 μM) (Sigma-Aldrich 88300-5G) was tested in 3% DMSO.

[1] = system: Cryptococcus yeast (CHY3833 and CHY3836); experiment: Yeast replication secondary screen (OD600); assay type: cell-based, Cryptococcus neoformans serotype D (deneoformans); details: 10 μM, 12 h at 30°C
Description: (ii) Yeast replication. CHY3833 and CHY3836 were each grown in YPD liquid overnight at 30°C to saturation and then resuspended in 0.5× YPD at an OD600 of 0.005. Strains were aliquoted into 384-well plates with inhibitors and grown for 12 h at 30°C at […] before OD600 readings were taken. Compounds that caused a >10% decrease in growth were considered yeast growth inhibitors.

[2] = system: normal human dermal fibroblasts (NHDF) cells; experiment: Fibroblast cytotoxicity (CellTiter-Glo); assay type: cell-based; details: 10 µM
Method in brief: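 Normal human dermal fibroblasts, 1 × 10^3 per well, exposed to compounds at 10 μM for 72 h at 37°C. Viability read as ATP-dependent CellTiter-Glo luminescence. Dose-response runs titrated compounds from 80 μM to 0.5 μM in duplicate.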

| Structure (SMILES) | germination inhibition phenotype (chemical phenotype) in QGA (Cryptococcus spores) | phenotypic concentration (concentration showing the germination phenotype in QGA) (Cryptococcus spores) | phenotypic concentration (concentration showing the germination phenotype in QGA) (Cryptococcus spores; listed as G2) | Yeast Inhibition: % Inhibition [1] | Cytotoxicity: Relative Cell Viability (% of Negative Control) [2] |
| --- | --- | --- | --- | --- | --- |
| COc1ccc(SCCCC(=O)Nc2ncnc3sccc23)cc1 [A8] | asynchrony | – | – | – | – |
| CCc1ccccc1NC(=O)c1cc(C)oc1C [B1] | – | 80 µM | – | – | – |
| CN[C@@H]1[C@@H](O)[C@@H](O[C@@H]2[C@@H](O)[C@H](O[C@H]3O[C@H]([C@@H](C)O)[C@@H](O)[C@H](O)[C@H]3N)[C@@H](N)C[C@H]2N)OC[C@]1(C)O [Geneticin, reference compound] | slow-down | – | – | – | – |
| CC(C)(C)c1ccc(-c2csc(N)n2)cc1 [PubChem CID 673711] | bimodal | 5 µM | – | – | – |
| Cc1nc(NC(=O)CCc2ccccc2)sc1C [PubChem CID 733834] | morphological variability | 40 µM | – | – | – |
| Cc1ccccc1OCCn1cnc2ccccc21 [PubChem CID 749608] | slow down | 10 µM | – | – | – |
| CCc1ccc2nc(N)sc2c1 [PubChem CID 773093] | slow end | 5 µM | – | – | – |
| Nc1nc(-c2ccc(Oc3ccccc3)cc2)cs1 [PubChem CID 780598] | bimodal | 20 µM | – | – | – |
| Cc1ccc(OCCn2c(C)nc3ccccc32)cc1 [PubChem CID 790960] | slow down | 80 µM | – | – | – |
| Nc1nc(COc2ccc3ccccc3c2)cs1 [PubChem CID 973573] | asynchrony | 10 µM | – | – | – |
| Cc1ccccc1OCCSCc1nc2ccccc2[nH]1 [PubChem CID 1589778] | slow down | 80 µM | – | – | – |
| Clc1ccc(OCCSCc2nc3ccccc3[nH]2)cc1 [PubChem CID 1589789] | slow down | 20 µM | – | – | – |
| CCCOc1ccc(CSc2nc3ccccc3[nH]2)cc1 [PubChem CID 1653621] | slow down | 80 µM | – | – | – |
| c1ccc(OCCCCSc2nc3ccccc3[nH]2)cc1 [PubChem CID 1653635] | slow down | 80 µM | – | – | – |
| Cc1cc(C)c2sc(NN)nc2c1 [PubChem CID 2049855] | combination of the “morphological variability” and the “slow end” phenotypes | – | 20 µM and 40 µM | – | – |
| Cc1cc(C(=O)NCC2Cc3ccccc3CO2)c(C)o1 (centres unmarked) [compound 91626508] | – | – | – | 53.9% | 98.3 % of Negative Control |
| CCCCc1nnc(NC(=O)c2cc(OC)ncn2)s1 [compound 91628556] | – | – | – | 83.1% | 88.7 % of Negative Control |
| Cc1cc(C(=O)NCCc2nc3c(c(C(F)(F)F)n2)COCC3)c(C)o1 [compound 91629266] | – | – | – | 31.5% | 103.1 % of Negative Control |
| O=C(NCc1ccnc(-c2cccs2)c1)c1nc2ccccc2s1 [compound 91630328] | – | – | – | 3.0% | 93.3 % of Negative Control |
